This note sets out measurements from US6977262B2, “Dihydropyrazolopyridine compounds and pharmaceutical use thereof” (Mitsubishi Pharma Corporation, priority 2001, dated 2005).

For the compound `N#CC1=C(CO)Nc2n[nH]cc2C1c1ccccc1Cl` (stereo not shown) [Example 252, 4-(2-Chlorophenyl)-5-cyano-4,7-dihydro-6-hydroxymethyl-2H-pyrazolo[3,4-b]pyridine], the melting point is 205 to 210 °C (dec.).

For `CCOC(=O)/C=C/C1=C(C#N)C(c2ccccc2Cl)c2c[nH]nc2N1` (stereo not drawn) [Example 253, 4-(2-Chlorophenyl)-5-cyano-4,7-dihydro-6-(trans-2-ethoxycarbonylethenyl)-2H-pyrazolo[3,4-b]pyridine], the melting point is 240 to 243 °C (dec.).

`CCOC(=O)CCC1=C(C#N)C(c2ccccc2Cl)c2c[nH]nc2N1` (stereo not shown) [Example 254, 4-(2-Chlorophenyl)-5-cyano-6-(2-ethoxycarbonylethyl)-4,7-dihydro-2H-pyrazolo[3,4-b]pyridine] gave a melting point of 172 to 174 °C.

For the compound `N#CC1=C(CO)Nc2n[nH]cc2C1c1cccc2nonc12` (stereo not shown) [Example 257, 4-(2,1,3-Benzoxadiazol-4-yl)-5-cyano-4,7-dihydro-6-hydroxymethyl-2H-pyrazolo[3,4-b]pyridine], the melting point is 215 to 220 °C (dec.).

In the case of `CC(C)C1=C(C#N)C(c2cccc(C#N)c2Br)c2c[nH]nc2N1` (stereo not shown) [Example 260, 4-(2-Bromo-3-cyanophenyl)-5-cyano-4,7-dihydro-6-isopropyl-2H-pyrazolo[3,4-b]pyridine], the melting point was > 250 °C.

`CC(C)C1=C(C#N)C(c2ccccc2[N+](=O)[O-])c2c[nH]nc2N1` (stereo not shown) [Example 262, 5-Cyano-4,7-dihydro-6-isopropyl-4-(2-nitrophenyl)-2H-pyrazolo[3,4-b]pyridine] showed a melting point of 224 °C.

As for `CC(C)C1=C(C#N)C(c2cccc(Cl)c2Cl)c2c[nH]nc2N1` (stereo not shown) [Example 263, 5-Cyano-4-(2,3-dichlorophenyl)-4,7-dihydro-6-isopropyl-2H-pyrazolo[3,4-b]pyridine], the melting point was > 250 °C.

As to `CC(C)C1=C(C#N)C(c2cccc3nonc23)c2c[nH]nc2N1` (stereo not shown) [Example 264, 4-(2,1,3-Benzoxadiazol-4-yl)-5-cyano-4,7-dihydro-6-isopropyl-2H-pyrazolo[3,4-b]pyridine], the melting point was 222 to 223 °C (dec.).

`COc1ccccc1C1C(C#N)=C(C(C)C)Nc2n[nH]cc21` (stereo not shown) [Example 265, 5-Cyano-4,7-dihydro-6-isopropyl-4-(2-methoxyphenyl)-2H-pyrazolo[3,4-b]pyridine]: the melting point is > 250 °C.

Regarding `N#CC1=C(C2CC2)Nc2n[nH]cc2C1c1ccccc1Cl` (stereo not shown) [Example 266, 4-(2-Chlorophenyl)-5-cyano-6-cyclopropyl-4,7-dihydro-2H-pyrazolo[3,4-b]pyridine], the melting point is > 250 °C.

Regarding `N#CC1=C(C2CC2)Nc2n[nH]cc2C1c1ccccc1Br` (stereo not shown) [Example 267, 4-(2-Bromophenyl)-5-cyano-6-cyclopropyl-4,7-dihydro-2H-pyrazolo[3,4-b]pyridine], the melting point was > 250 °C.

For the compound `N#CC1=C(C2CC2)Nc2n[nH]cc2C1c1cccc2nonc12` (stereo not shown) [Example 269, 4-(2,1,3-Benzoxadiazol-4-yl)-5-cyano-6-cyclopropyl-4,7-dihydro-2H-pyrazolo[3,4-b]pyridine], the melting point is 200 to 201 °C (dec.).

`N#CC1=C(C2CC2)Nc2n[nH]cc2C1c1ccccc1[N+](=O)[O-]` (stereo not shown) [Example 272, 5-Cyano-6-cyclopropyl-4,7-dihydro-4-(2-nitrophenyl)-2H-pyrazolo[3,4-b]pyridine]: the melting point was 236 to 238 °C (dec.).

Consider `N#CC1=C(c2cccs2)Nc2n[nH]cc2C1c1cccc(C#N)c1Br` (stereo not shown) [Example 278, 4-(2-Bromo-3-cyanophenyl)-5-cyano-4,7-dihydro-6-(thiophen-2-yl)-2H-pyrazolo[3,4-b]pyridine], for which the melting point was > 280 °C.

For `CCCC1=C(C#N)C(c2ccccc2Cl)c2cnn(C(=O)OC(C)(C)C)c2N1` (stereo not shown) [Example 281, 1-tert-Butoxycarbonyl-4-(2-chlorophenyl)-5-cyano-4,7-dihydro-6-propyl-1 H-pyrazolo[3,4-b]pyridine], the melting point is 98 to 102 °C.

Take `CCCC1=C(C#N)C(c2ccccc2Cl)c2cn(C(=O)OC(C)(C)C)nc2N1` (stereo not shown) [Example 282, 2-tert-Butoxycarbonyl-4-(2-chlorophenyl)-5-cyano-4,7-dihydro-6-propyl-2H-pyrazolo[3,4-b]pyridine]: the melting point was 175 °C (dec.).

The compound `CCCC1=C(C#N)C(c2ccccc2Cl)c2cnn(C(=O)Nc3ccccc3)c2N1` (stereo not shown) [Example 283, 4-(2-Chlorophenyl)-5-cyano-4,7-dihydro-1-phenylcarbamoyl-6-propyl-1 H-pyrazolo[3,4-b]pyridine] yielded a melting point of 138 to 140 °C.

`CCCC1=C(C#N)C(c2ccccc2Cl)c2cn(C(=O)Nc3ccccc3)nc2N1` (stereo not shown) [Example 284, 4-(2-Chlorophenyl)-5-cyano-4,7-dihydro-2-phenylcarbamoyl-6-propyl-2H-pyrazolo[3,4-b]pyridine] showed a melting point of 167 to 171 °C.

On to `CCCC1=C(C#N)C(c2cccc3nonc23)c2cn(C(=O)OC(C)(C)C)nc2N1` (stereo not shown) [Example 288, 4-(2,1,3-Benzoxadiazol-4-yl)-2-tert-butoxycarbonyl-5-cyano-4,7-dihydro-6-propyl-2H-pyrazolo[3,4-b]pyridine], for which the melting point is 168 to 170 °C.

Turning to `CCCC1=C(C#N)C(c2ccccc2Cl)c2c(n[nH]c2-c2ccc(OC)cc2)N1` (stereo not shown) [Example 290, 4-(2-Chlorophenyl)-5-cyano-4,7-dihydro-3-(4-methoxyphenyl)-6-propyl-2H-pyrazolo[3,4-b]pyridine], the melting point came to 284 °C.

Take `N#CC1=C(c2ccc(Br)s2)Nc2n[nH]cc2C1c1cccc2nonc12` (stereo not shown) [Example 291, 4-(2,1,3-Benzoxadiazol-4-yl)-6-(2-bromothiophen-5-yl)-5-cyano-4,7-dihydro-2H-pyrazolo[3,4-b]pyridine]: the melting point was 208 °C.

`Cc1ccsc1C1=C(C#N)C(c2cccc3nonc23)c2c[nH]nc2N1` (stereo not shown) [Example 292, 4-(2,1,3-Benzoxadiazol-4-yl)-5-cyano-4,7-dihydro-6-(3-methylthiophen-2-yl)-2H-pyrazolo[3,4-b]pyridine] had a melting point of 202 °C.

`COCn1cc(C2=C(C#N)C(c3cccc4nonc34)c3c[nH]nc3N2)c2ccccc21` (stereo not shown) [Example 293, 4-(2,1,3-Benzoxadiazol-4-yl)-5-cyano-4,7-dihydro-6-(1-methoxymethylindol-3-yl)-2H-pyrazolo[3,4-b]pyridine] returned a melting point of 200 °C.

Regarding `CCCC1=C(C#N)C(c2ccccc2Cl)c2c(n[nH]c2-c2cccs2)N1` (stereo not shown) [Example 294, 4-(2-Chlorophenyl)-5-cyano-4,7-dihydro-6-propyl-3-(thiophen-2-yl)-2H-pyrazolo[3,4-b]pyridine], the melting point came out at 256 °C.

Take `CCCC1=C(C#N)C(c2ccccc2Cl)c2c(n[nH]c2-c2ccco2)N1` (stereo not shown) [Example 295, 4-(2-Chlorophenyl)-5-cyano-4,7-dihydro-3-(furan-2-yl)-6-propyl-2H-pyrazolo[3,4-b]pyridine]: the melting point stood at 253 °C.

Turning to `CCCC1=C(C#N)C(c2ccccc2Cl)c2c(n[nH]c2-c2ccccc2OC)N1` (stereo not shown) [Example 296, 4-(2-Chlorophenyl)-5-cyano-4,7-dihydro-3-(2-methoxyphenyl)-6-propyl-2H-pyrazolo[3,4-b]pyridine], the melting point is > 270 °C.

In turn, `CCCC1=C(C#N)C(c2ccccc2Cl)c2c(n[nH]c2-c2cccc(OC)c2)N1` (stereo not shown) [Example 297, 4-(2-Chlorophenyl)-5-cyano-4,7-dihydro-3-(3-methoxyphenyl)-6-propyl-2H-pyrazolo[3,4-b]pyridine] had a melting point of 239 °C.

The compound `N#CC1=C(c2ccc(Cl)s2)Nc2n[nH]cc2C1c1cccc2nonc12` (stereo not shown) [Example 298, 4-(2,1,3-Benzoxadiazol-4-yl)-6-(2-chlorothiophen-5-yl)-5-cyano-4,7-dihydro-2H-pyrazolo[3,4-b]pyridine] registered a melting point of 210 °C.

As to `Cc1ccc(C2=C(C#N)C(c3cccc4nonc34)c3c[nH]nc3N2)s1` (stereo not shown) [Example 299, 4-(2,1,3-Benzoxadiazol-4-yl)-5-cyano-4,7-dihydro-6-(2-methylthiophen-5-yl)-2H-pyrazolo[3,4-b]pyridine], the melting point amounted to 192 °C.

`CCCC1=C(C#N)C(c2ccccc2Cl)c2c(n[nH]c2-c2cccc3ccccc23)N1` (stereo not shown) [Example 300, 4-(2-Chlorophenyl)-5-cyano-4,7-dihydro-3-(naphthalen-1-yl)-6-propyl-2H-pyrazolo[3,4-b]pyridine]: the melting point turned out to be 254 °C.

For the compound `CCCC1=C(C#N)C(c2ccccc2Cl)c2c(n[nH]c2-c2ccc3ccccc3c2)N1` (stereo not shown) [Example 301, 4-(2-Chlorophenyl)-5-cyano-4,7-dihydro-3-(naphthalen-2-yl)-6-propyl-2H-pyrazolo[3,4-b]pyridine], the melting point was > 270 °C.

`CCCC1=C(C#N)C(c2ccccc2Cl)c2c(n[nH]c2CCC)N1` (stereo not shown) [Example 302, 4-(2-Chlorophenyl)-5-cyano-4,7-dihydro-3,6-dipropyl-2H-pyrazolo[3,4-b]pyridine] registered a melting point of 237 °C.

Turning to `CCCCc1[nH]nc2c1C(c1ccccc1Cl)C(C#N)=C(CCC)N2` (stereo not shown) [Example 304, 3-Butyl-4-(2-chlorophenyl)-5-cyano-4,7-dihydro-6-propyl-2H-pyrazolo[3,4-b]pyridine], the melting point turned out to be 212 °C.

Compound `N#CC1=C(c2cc3ccccc3s2)Nc2n[nH]cc2C1c1cccc2nonc12` (stereo not shown) [Example 305, 4-(2,1,3-Benzoxadiazol-4-yl)-6-(benzothiophen-2-yl)-5-cyano-4,7-dihydro-2H-pyrazolo[3,4-b]pyridine] gave a melting point of 220 °C.

Regarding `N#CC1=C(C2CCCCC2)Nc2n[nH]cc2C1c1ccccc1Cl` (stereo not shown) [Example 306, 4-(2-Chlorophenyl)-5-cyano-6-cyclohexyl-4,7-dihydro-2H-pyrazolo[3,4-b]pyridine], the melting point came to 163 °C.

The compound `CC(C)(C)C1=C(C#N)C(c2ccccc2Cl)c2c[nH]nc2N1` (stereo not shown) [Example 307, 6-t-Butyl-4-(2-chlorophenyl)-5-cyano-4,7-dihydro-2H-pyrazolo[3,4-b]pyridine] had a melting point of 198 °C.

Turning to `CCCC1=C(C#N)C(c2ccccc2Cl)c2c(n[nH]c2C2CC2)N1` (stereo not shown) [Example 308, 4-(2-Chlorophenyl)-5-cyano-3-cyclopropyl-4,7-dihydro-6-propyl-2H-pyrazolo[3,4-b]pyridine], the melting point is 270 °C.

By melting point is commonly meant the temperature, or range, at which the solid turns liquid.
